Three compounds from patent publication US20030216327A1, “Sapogenin-based treatment” (L'OREAL, priority 2002, published 2003) can be followed below.

The test system of the test is immortalized human sebocytes derived from the SZ95 line. Put plainly: Lipid production by immortalized human sebocytes in culture (Nile Red fluorescence). As to conditions: treatment for two days; for VARIATION IN LIPIDS (compared to control): total lipids (neutral + non-neutral), Nile Red, 0.1% DMSO. The test is classed as cell-based. On the procedure:
Hecogenin and diosgenin, provided by SIGMA, were tested on a model of immortalized human sebocytes in culture, derived from the SZ95 line described in C. C. Zouboulis, H. Seltmann, H. Neitzel & C. E. Orfanos, Establishment and Characterization of an Immortalized Human Sebaceous Gland Cell Line, J. Invest. Dermatol., 113, 1011-1020 (1999).
The test consisted in measuring the amount of lipids produced by the sebocytes of the line (at confluency), in the presence or absence of active agents, diluted in DMSO such that the final amount of DMSO in the culture medium is 0.1%. After treatment for two days, the adherent cells are treated with Nile Red (1 μg/ml). The lipid content is then quantified by measuring the fluorescence of the dye (two excitation/emission couples: 485-540 nm for the neutral lipids and 540-620 nm for the non-neutral lipids). The results are given for the total lipids (combination of the two measurements).
The experiment was carried out in triplicate (assay products and control) in a 96-well plate and repeated three times.

On to `C[C@@H]1CC[C@@]2(OC1)O[C@H]1C[C@H]3[C@@H]4CC=C5C[C@@H](O)CC[C@]5(C)[C@H]4CC[C@]3(C)[C@H]1[C@@H]2C` [Diosgenin], for which the “VARIATION IN LIPIDS (compared to control)” value (0.1 μM) was “+4%”. As to `C[C@@H]1CC[C@@]2(OC1)O[C@H]1C[C@H]3[C@@H]4CC[C@@]5(C)C[C@@H](O)CC[C@]5(C)[C@H]4CC(=O)[C@]3(C)[C@H]1[C@@H]2C` [Hecogenin], where the note is “0.1 μM”, the “VARIATION IN LIPIDS (compared to control)” value was “+5%”.

As for `C[C@]12CC[C@H](O)CC1=CC[C@@H]1[C@@H]2CC[C@]2(C)C(=O)CC[C@@H]12` [DHEA], the “activity on lipid content (lipogenesis)” value (0.1 μM, same test, total lipids) was “inactive”. Further, for the setting “10 μM, same test, total lipids”, the “increase in the lipid content of the sebum” value was determined as 13%.
